# Source: patent publication EP0710485A1, “use of anserine in the manufacture of a medicament for stimulating hematopoiesis” (SUNTORY LIMITED, priority 1994, dated 1996)
# Experiments:
# leukocytes = experiment: Leukocyte number recovery in mice given cyclophosphamide; type: in vivo, C57BL mice; conditions: for The number of leukocytes: Ans 100 mg/kg s.c. every day where given, mean ± standard error, 5 animals
# Text: On the seventh, eighth and ninth days from the administration of cyclophosphamide blood samples were taken from the orbital venosus plexus of the mouse, and the number of leukocytes was counted by an automatic hemacytometer.
# erythrocytes [1] = experiment: Prevention of anemia in mice given cyclophosphamide; type: in vivo, C57BL-mice
# Protocol: 7-week old C57BL-mice were intravenously injected with cyclophosphamide (CY) in a dose of 300 mg/kg. L-anserine (Ans) was subcutaneously administered every day in a dose of 100 mg/kg from the day on which cyclophosphamide was administered. After 1, 3, 5, 7 and 9 days from the administration of cyclophosphamide (for L-anserine, after 3, 5 and 7 days), blood samples were taken from the orbital venosus plexus of the mouse, and the number of erythrocyte and the amount of hemoglobin were measured by an automatic hemacytometer. The experiment was carried out using three mice per experimental group, and the results are shown as mean ± standard error.
# [2] = tested on: colony stimulating activity (CSA) in serum; experiment: Colony stimulating activity (CSA) in serum of cyclophosphamide-treated mice
# Protocol: 300 mg/kg dose of cyclophosphamide (CY) was intravenously injected into 7-week-old ICR mice. 100 mg/kg dose of L-anserine (Ans) was subcutaneously injected every day from the day on which cyclophosphamide was administered. On the first, third, fifth, seventh and ninth days from the administration of cyclophosphamide (on the third, fifth and seventh day for the group to which Ans was administrated), the mouse serum was taken, and colony stimulating activity (CSA) was measured. For a CSA assay in serum, 50 µl of CSA assay serum was added to a medium comprising 50 µl of bone marrow cells (1.5 × 10^6 cells/ml) aseptically recovered from the femur of a normal female ICR mouse, 200 µl of FCS, 450 µl of 0.6% agar and 300 µl of × 2 DMEM, and the mixture was stirred and cultured in 5% CO2 at 37°C for 10 days, a cell mass comprising at least 30 cells was counted as one colony, and the number of the colonies was defined as the CSA of a serum.
# IL-3 = IL-3 productivity of spleen cells of cyclophosphamide-treated mice (FDCP-2 cell MTT assay); type: in vivo, ICR mice; conditions: for IL-3 productivity of the spleen cells: CY 300 mg/kg i.v. + L-anserine 100 mg/kg every day; for productivity of IL-3 by spleen cells: CY 300 mg/kg i.v. alone
# Protocol: 300 mg/kg dose of cyclophosphamide (CY) was intraveously injected to 7-week old ICR mice. To L-anserine (Ans)-administration group, 100 mg/kg dose of L-anserine was administrated every day from the day on which cyclophosphamide was administrated. On the third, fifth and seventh days from the administration of cyclophosphamide, spleen cells of the mouse were taken and the cells (5 × 10^6 cells/ml) were cultured in a 10% FCS-RPMI 1640 medium supplemented with 2 µg/ml of concanavalin A for 24 hours, and the supernatant was assayed for IL-3. The IL-3 activity was measured by plating 1×10^4 cells/well of IL-3 dependent FDCP-2 cells on a 96 well microtiter plate, adding twofold stepwise-diluted supernatant to the wells, culturing the cells for 24 hours, and measuring a ratio of surviving FDCP-2 cells by MTT assay using 3-(4,5-dimethylthyazol-2yl)-2,5-diphenyl tetrazolium bromide. Using a culture supernatant of WEHI cells as IL-3 standard, a concentration of IL-3 which provides 50% growth per the maximum growth of the cultured FDCP-2 cells was defined as 1 unit, and I L-3 activity of a sample was obtained by calculating a sample dilution ratio which provides 50% of the maximum absorption in the standard curve.
# erythrocytes [3] = experiment: Treatment of anemia in mice irradiated with X-ray; type: in vivo, C57BL/mice; conditions: 4.0 Gy X-ray; L-anserine 100 mg/kg s.c. for 10 days; 14th day from irradiation
# Protocol: 7-week old C57BL/mice were systemically irradiated with 4.0 Gy of X-ray. L-anserine was subcutaneously injected continuously for 10 days from the day on which X-ray was irradiated in a dose of 100 mg/kg. On 14th day from the irradiation of X-ray, blood samples were taken from the orbital venosus plexus of mice, and the number of erythrocytes and amount of hemoglobin were measured by an automatic hemacytometer. The experiment used three mice for one experimental group, and the results are shown as mean ± standard error.
# mouse bone marrow cells = experiment: Colony Forming Unit in Spleen (CFU-s), transplant method, in X-ray irradiated mice; type: in vivo, C57BL/6 mouse; conditions: X-ray 6 Gy, 5 x 10^4 bone marrow cells transplanted, spleen colonies after eight days; L-anserine 100 mg/kg s.c. every day to the seventh day; versus X-ray control group
# Protocol: Colony Forming Unit in Spleen (CFU-s) of mouse bone marrow cells in mouse radiated with X-ray was carried out using a transplant method. The X-ray radiation was carried out using an MBR-1520 type R X-ray radiation apparatus manufactured by Hitachi Medico. The mice were irradiated with X-rays such that the radiation dose rate was 1.16 Gy/min (150 kV, 20 mA, Filter: 0.5 mm Al + 0.1 mm Cu), and the radiation dose was 6 Gy. 5 × 10^4 bone marrow cells of normal C57BL/6 mouse were injected into a tail vein of a radiated recipient female C57BL/6 mouse. Eight days later, the spleen of the mouse was removed and fixed with Bouin solution, and the number of cell colonies formed on the spleen surface were counted. To the L-anserine-administration group 100 mg/kg dose of L-anserine was subcutaneously administrated every day from the day on which X-ray was radiated to the seventh day, and to the chicken extract-administration group 0.5 ml/head dose of chicken extract containing 2mg/ml of L-anserine was orally administrated every day from the day on which X-ray was radiated to the seventh day.
# bone marrow cells = experiment: Spontaneous proliferation of bone marrow cells (3H-thymidine uptake) from cyclophosphamide-treated mice; type: in vivo, ICR mice
# Protocol: 300 mg/kg dose of cyclophosphamide (CY) was intraveously injected into 7-week-old ICR mice. […] The number of cells per femur for each mouse was counted, and the bone marrow cells for each test group were plated on a 96-well microplate (2 X 100,000 cells/well), and at the same time 0.5µ Ci/well of ^3H-thymidine was added. The cells were cultured for 5 hours, and radioactivity (C.P.M) was measured with a liquid scintillation counter. An experiment was carried out using 3 animals per group, and the results are shown by mean value ± standard error. Spontaneous proliferation ability of bone marrow cells for each group was shown in the parentheses by percentage by taking spontaneous proliferation of bone marrow cells at 0 day (untreated) as 100%.
# [4] = CY 300 mg/kg i.v. + L-anserine 100 mg/kg s.c. every day, third day to seventh day
# [5] = CY 300 mg/kg i.v. alone, third to seventh days
smiles,measurement,setting,value
"Cn1cncc1C[C@H](NC(=O)CCN)C(=O)O [L-anserine, β-alanyl-π-methyl-L-histidine]",number of leukocytes,"leukocytes; CY 300 mg/kg i.v. + L-anserine 100 mg/kg s.c. every day, eighth and ninth days",~1.5 times higher than that of the control
same,number of leukocytes,"leukocytes; CY 300 mg/kg i.v. + L-anserine 100 mg/kg s.c. every day, seventh to ninth days, versus CY alone control group",higher than that of the control group
same,decrease of content of hemoglobin,erythrocytes [1]; [4],inhibited
same,decrease of the number of erythrocytes,erythrocytes [1]; [4],inhibited
same,colony stimulating activity (CSA) in serum,"[2]; CY 300 mg/kg i.v. + L-anserine 100 mg/kg s.c. every day, third day",1.5 times higher than the control group
same,colony stimulating activity (CSA) in serum,"[2]; CY 300 mg/kg i.v. + L-anserine 100 mg/kg s.c. every day, third to seventh days, versus CY alone control",higher than that of the control
same,IL-3 productivity of the spleen cells,IL-3; fifth and seventh days,1.5 times higher than the control group
same,IL-3 productivity of the spleen cells,"IL-3; third to seventh days, versus CY alone control group",higher than the control group
same,recovery of the concentration of hemoglobin,erythrocytes [3],promoted
same,recovery of the number of erythrocytes,erythrocytes [3],promoted
same,CFU-s activity,mouse bone marrow cells,significantly higher
same,spontaneous proliferation ability of bone marrow cells,"bone marrow cells; CY 300 mg/kg i.v. + L-anserine 100 mg/kg s.c. every day, third and seventh days, versus CY alone control group",at least two times higher than the control group
same,spontaneous proliferation ability of bone marrow cells,"bone marrow cells; CY 300 mg/kg i.v. + L-anserine 100 mg/kg s.c. every day, third to seventh days, versus CY alone control group",significantly higher than that of the control group
"O=P1(N(CCCl)CCCl)NCCCO1 (centres unmarked) [CY, cyclophosphamide]",The number of leukocytes,leukocytes; 7 days after CY 300 mg/kg i.v.,32.8 ± 8.0 X 100/µl
same,The number of leukocytes,leukocytes; 8 days after CY 300 mg/kg i.v.,67.4 ± 8.1 X 100/µl
same,The number of leukocytes,leukocytes; 9 days after CY 300 mg/kg i.v.,66.6 ± 7.2 X 100/µl
same,number of leukocytes,"leukocytes; CY 300 mg/kg i.v. alone, time course after administration","decreased immediately after the administration, and gradually recovered before the seventh to ninth day"
same,amount of hemoglobin,erythrocytes [1]; [5],"decrease, resulting in anemia"
same,number of erythrocytes,erythrocytes [1]; [5],"decrease, resulting in anemia"
same,colony stimulating activity (CSA) in serum,"[2]; CY 300 mg/kg i.v. alone, after the third day",the inhibition was compensated by stimulation of CSA
same,colony stimulating activity (CSA) in serum,"[2]; CY 300 mg/kg i.v. alone, first day",inhibited
same,productivity of IL-3 by spleen cells,IL-3; first to third days,inhibited
same,productivity of IL-3 by spleen cells,"IL-3; on and after the fifth day, versus normal conditions",increase of IL-3 productivity by two times
same,spontaneous proliferation ability of bone marrow cells,"bone marrow cells; CY 300 mg/kg i.v. alone, fifth day",once recovered to the normal level
same,spontaneous proliferation ability of bone marrow cells,"bone marrow cells; CY 300 mg/kg i.v. alone, first to third days",remarkably inhibited
same,spontaneous proliferation ability of bone marrow cells,"bone marrow cells; CY 300 mg/kg i.v. alone, seventh to ninth days",again decreased
